Reference: patent publication US20050059608A1, “Pharmaceutical compounds” (priority 2001, published 2005)

Legend:
[1] = Hydrolysis in aqueous solution (chemical hydrolysis in phosphate buffer); type: physicochemical; settings: aqueous phosphate buffer 0.16 M; for half-life: read-out: Pseudo-first order half-time (t1/2) for chemical hydrolysis (converted)
Protocol: (§1) The HPLC system used consisted of a Beckman System Gold Programmable Solvent Module 126, Beckman System Gold Detector Module 166 with variable wavelength UV detector (set at 254 nm) and a Beckman System Gold Autosampler 507e. Separations were accomplished on a Purospher RP-18 reverse-phase column, 12.5 cm×4.0 mm i.d., 5 μm (Merck, Darmstadt, Germany). The chromatographic conditions were as follows: injection volume, 50 μl; column temperature, 40° C.; flow rate, gradient/isocratic at 1.0 ml/min. The mobile phase consisted of various proportions of methanol/water mixture (90:10) and a citrate/phosphate buffer pH 2.2.
The rate of chemical hydrolysis was determined in aqueous phosphate buffer solution (0.16 M) at pH 7.4, 5.0, and 1.2 at 37° C. An appropriate amount was dissolved in 10 ml of preheated buffer and the solution was placed in a thermostatically controlled water bath at 37° C. At appropriate time intervals, samples were taken and analyzed for the remaining codrug by HPLC. Pseudo-first order half-time (t1/2) for the hydrolysis was calculated from the slope of the linear portion of the plotted logarithm of remaining codrug vs. time.

[2] = Hydrolysis in 10% rabbit liver homogenate; type: in vitro ADME; settings: 10% rabbit liver homogenate (9,000 g supernatant), pH 7.4, 37° C., read-out: t1/2 of hydrolysis in rabbit liver homogenate
Protocol: as §1
The rabbit liver was homogenized with approximately four equivalent volumes of isotonic phosphate buffer at pH 7.4 using an X-1020 homogenizer (Ystral, Germany). The homogenate was centrifuged for 90 min at 9,000 g and 4° C. with a Biofuge 28 RS centrifuge (Heraeus Instruments, Germany). The supernatant was stored at −80° C. until analysis. An appropriate amount was dissolved in one volume of preheated 20% liver homogenate. The solution was then incubated at 37° C. At appropriate time intervals, samples (300 μl) were withdrawn. Samples were pretreated with 300 μl of methanol to terminate enzymatic activity. […] The residue was dissolved in 400 μl of the mobile phase buffer and analyzed by HPLC.

[3] = after oral administration; cited from earlier work

Row | SMILES | Pseudo-first order half-time (t1/2) for chemical hydrolysis ([1]; pH 1.2, 37° C.) [h] | half-life ([1]; pH 5.0, 37° C.) [h] | half-life ([1]; pH 7.4, 37° C.) [h] | half-life [2] [min] | bioavailability of entacapone [3]
1 | CCN(CC)C(=O)/C(C#N)=C/c1cc(OC(=O)N[C@@H](Cc2ccc(O)c(O)c2)C(=O)OC)c(O)c([N+](=O)[O-])c1 [Example 1, (S)-2-{5-[(E)-2-cyano-2-(diethylcarbamoyl)vinyl]-2-hydroxy-3-nitrophenoxycarbonylamino}-3-(3,4-dihydroxyphenyl)propionic acid methyl ester] | 12.1 | 1.4 | 1.1 | 7 | 
2 | CCN(CC)C(=O)/C(C#N)=C/c1cc(O)c(O)c([N+](=O)[O-])c1 [entacapone, (E)2-cyano-N,N-diethyl-3-(3,4-dihydroxy-5-nitrophenyl)propenamide] |  |  |  |  | 29-46%
